The text below walks through data of publication PMC9688808, “Discovery of Novel Lin28 Inhibitors to Suppress Cancer Cell Stemness” (Cancers, 2022).

One assay has as its target T1, Lin28B ZKD (Homo sapiens, UniProt Q6ZN17).
T1 construct: His-tagged human Lin28B ZKD (aa110-174); His-tag; made in house; host or cells: Escherichia coli BL21
T1 sequence (Q6ZN17 110-174): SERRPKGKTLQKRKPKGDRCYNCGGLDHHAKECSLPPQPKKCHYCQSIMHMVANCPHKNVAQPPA
The assay is described as follows: Bio-layer interferometry (BLI) with Avi-tagged Lin28B ZKD. The conditions noted are these: for BLI binding to Lin28 ZKD: up to 100 µM. The assay is classed as binding. As to the method: BLI assays were performed as we previously reported to quantify the direct and reversible interactions between small molecules and Lin28B ZKD by using OctetRED (ForteBio, Bohemia, NY, USA). Lin28B was thus expressed with His-tag and a biotinylated AviTag sequence ([…]) at its N-terminus in Escherichia coli BL21 cells. Purified Lin28B ZKD (50 ug/mL) was bound to the super-streptavidin sensors for 1 h at room temperature. Sensors were next blocked with biocytin, washed, and then dipped into wells containing increasing concentrations of the tested inhibitors in assay buffer (20 mM N-2-hydroxyethylpiperazine-N0-2-ethanesulfonic acid (HEPES), 150 mM NaCl, 500 uM tris(2-carboxyethyl) phosphine (TCEP), and 1% dimethylsulfoxide (DMSO)). Association for 200 s and dissociation in assay buffer for 100 s were recorded for each well. Data analysis was done using the OctetRED software (ForteBio, Bohemia, NY, USA).
Figure 3 Lin28 inhibitors block the interaction between Lin28B ZKD and Let-7. (A) EMSA used 10 nM of IR800DyeCWN-labeled let-7 probe (lane 1), 0.5 uM Lin28B ZKD protein with 10 nM of labeled Let-7 probe (lane 2), or Lin28B ZKD, labeled Let-7 probe and 100× non-labelled competitor probe (lane 3). EMSA used Lin28B ZKD, labeled Let-7 probe, and 100–1200 uM of indicated compounds (lanes 4–10). (B) FP assays were performed by using 10 uM of Lin28B ZKD and 1 nM of FAM-labeled Let-7 probe and 1 nM–1000 uM of compounds. (C) Bio-layer interferometry (BLI) assays were performed using 0–25 uM of Ln115 with Avi-tagged Lin28B ZKD protein. (D) Chemical structures of the three lead compounds were shown.
To validate that these molecules indeed directly bind to the ZKD domain of Lin28 in a reversible and dose-dependent manner, we used the biolayer interferometry (BLI) assay. Biotinylated Avi-tagged Lin28 ZKD was immobilized onto streptavidin biosensors. The sensor plates were then dipped in successive wells containing increasing concentrations of Ln7, Ln 15, or Ln115. […]
(In general: BLI is a label-free optical method that tracks binding on a fibre tip over time.)

Another assay has as its target T2, Lin28A ZKD (Homo sapiens, UniProt Q9H9Z2).
T2 construct: Lin28A ZKD (aa121-187); His-tag; made in house; host or cells: Escherichia coli BL21
T2 sequence (Q9H9Z2 121-187): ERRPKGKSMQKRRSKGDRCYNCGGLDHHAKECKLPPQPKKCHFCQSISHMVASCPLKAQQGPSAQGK
The assay is described as follows: Fluorescence polarization (FP) assay, Lin28A ZKD with FAM-labeled Let-7 probe. The assay is classed as binding. The conditions noted are these: for IC50: 10 uM Lin28A ZKD, 1 nM FAM-labeled Let-7 probe, 1 nM–200 uM compound; for suppression of FP signals: Lin28A ZKD. From the text: ZINC compounds were purchased from Enamine (Kyiv, Ukraine), Life Chemicals Ltd. (Kyiv, Ukraine), or Princeton Biomolecular Research (Princeton, NJ, USA) with >90% purity. Upon receiving the compounds, the molecular masses were validated by LC/MS/MS. His-tagged human Lin28B ZKD (aa110-174), Lin28B CSD+ZKD (aa7-204), and Lin28A ZKD (aa121-187) were expressed in Escherichia coli BL21 cells and purified by immobilized metal ion affinity chromatography (IMAC) with nickel nitrilotriacetic acid (NiNTA) resin and size exclusion chromatography (s75 10/300 GL) as we have previously reported.
The fluorescein amidites (FAM)-tagged Let-7 probe with the sequence of […] was purchased from Integrated DNA Technologies (IDT). The probe at the concentrations ranging from 1 nM to 50 uM was incubated with Lin28B (ZKD) or Lin28 (CSD+ZKD) to a final volume of 30 uL at room temperature for 20 min. To read the fluorescence, a TECAN 500 machine was used. Fluorescence polarization was calculated using the following equation: P=Fparrallel−Fperpendicular/Fparrallel+Fperpendicular where P is the fluorescence polarization reading, F parallel is the fluorescence intensity acquired from the parallel excitation plane, and F perpendicular is the fluorescence intensity acquired from the perpendicular direction of the excitation plane. The total fluorescence intensity is estimated using the following equation: F=Fparallel+2Fperpendicular
All the raw FP signal data from the TECAN 500 FP results were analyzed using Prism 8.0 (GraphPad, San Diego, CA, USA); normalized curves were plotted and IC50 values were estimated. All FP data were repeated three to five times.
Figure 5 Lin28 inhibitors block the Lin28A isoform. (A) EMSA used 10 nM of IR800DyeCWN-labeled Let-7 probe (lane 1), 0.5 uM Lin28A ZKD protein with 10 nM of labeled Let-7 probe (lane 2), or Lin28A ZKD, labeled Let-7 probe and 100× non-labeled competitor probe (lane 3). EMSA used Lin28A ZKD, labeled Let-7 probe, and 100–1200 uM of indicated compounds (lanes 4–10). (B) FP assays were performed by using 10 uM of Lin28A ZKD, 1 nM of FAM-labeled Let-7 probe, and 1 nM–200 uM of compounds. (C) Lin28A-positive IGROV1 cells were treated with 20 uM of the indicated compound for 48 h. Real-time qPCR measured RNA levels of Let-7d, SOX2, and HMGA2. Three biological replicates were performed and all results are presented as mean +/− SD. p-value ≤ 0.05—(*); ≤0.01—(**); ≤0.001—(***).
In general terms: Polarisation of emitted light reports the rotation of a fluorescent probe.

For a further assay, the system named is DUNE cells. The assay is described as follows: Real-time qPCR of CSC and neuroendocrine biomarkers in DUNE cells. Type of assay: cell-based. The settings on record: 20 uM, 48 h. As for the experimental part: There are several standard molecular techniques, including real-time qPCR, flow cytometry, cell proliferation, colony formation, and immunoblotting assays, that have been reported previously by our lab.
Figure 6 Lin28 inhibitors block the expression of NE and CSC biomarkers. DUNE cells were treated with 20 uM of the indicated compound for 48 h. Real-time qPCR measured RNA levels of neuroendocrine (A) and CSC (B) biomarkers. Three biological replicates were performed and all results are presented as mean +/− SD. p-value ≤ 0.05—(*); ≤0.01—(**); ≤0.001—(***).

One may read the IC50 as the midpoint of a concentration-inhibition curve. As for `O=c1[nH]c(Nc2ccccc2O)cs1` [Ln15], the “BLI binding to Lin28 ZKD” value on Lin28B ZKD is recorded as “non-specific binding to the sensors”. At Lin28A ZKD, this compound had a half-inhibitory concentration (IC50) of 9.1 µM. In addition, in the assay on DUNE cells, the “expression of CSC markers (IGF2BP1, CDH2, FOXD3, HEY1, ALDH1A2, CDK6, FOXC1, SIX2, ID4)” value (“expression of CSC markers” below) is given as “reductions” and the “expression of neuroendocrine markers (ASCL1, CHGB, SCGN, SYP, STT4)” value (shortened to “expression of neuroendocrine markers”) is “blocked”.
`CC(=O)N(C)c1cccc(-c2ccc3nnc(C)n3n2)c1` [compound 1632, reference compound]: the “suppression of FP signals” value on Lin28A ZKD is given as “mild inhibitions”. Also, in the assay on DUNE cells, the “expression of CSC markers” value was “variable mild inhibitory effects or no inhibition”.
Turning to `CCOc1cccc2c1N[C@@H](c1ccc(C(=O)O)cc1)[C@H]1CC=C[C@@H]21` [Li71, reference compound], at Lin28A ZKD, the “suppression of FP signals” value is given as “mild inhibitions”. The “expression of CSC markers” value with DUNE cells is listed as “variable mild inhibitory effects or no inhibition”.
The term Kd denotes the free concentration of one partner at which half of the binding sites on the other are occupied at equilibrium, for simple one-to-one binding. Turning to `O=c1cccc(-c2nc3cc(F)c(O)cc3c(=O)[nH]2)[nH]1` [Ln115], the dissociation constant (Kd) at Lin28B ZKD (0–25 uM Ln115, Avi-tagged Lin28B ZKD, read-out: estimated KD (BLI)) is 60 ± 4 µM. The same compound yielded an IC50 on Lin28A ZKD of 12.2 µM. In the assay with DUNE cells, the “expression of CSC markers” value is reported as “reductions”; the “expression of neuroendocrine markers” value is given as “blocked”; the “suppression of CDH2 expression” value is listed as “up to 90%”; the “suppression of FOXD3 expression” value is on record as “up to 90%”.
Consider `CCc1cc(=O)[nH]c(Nc2cc(Cl)ccc2O)n1` [Ln7], for which, at Lin28B ZKD, the “BLI binding to Lin28 ZKD” value is reported as “did not show any binding”. The same compound displayed an IC50 at Lin28A ZKD of 27.4 µM. Besides, in the assay with DUNE cells, the “expression of CSC markers” value is “reductions” and the “expression of neuroendocrine markers” value is “blocked”.
